Test results taken from US11458142B2, “Compositions and methods for ameliorating pain” (The Board of Supervisors of Louisiana State University and …, priority 2017, dated 2022).
Values joined by “and” are separate entries in the source; they are usually repeats but may differ in a detail not shown here. Equal values may be shown once. Each block holds one compound with its values, some of them ahead of it.

Assays:
CD1 male mice [1] = experiment: Liver function assays (ALT, AST, ALP) in serum; assay type: in vivo, mouse; settings: 600 mg/kg PO
CD1 male mice [2] = experiment: Acetic acid-induced abdominal writhing assay; assay type: in vivo, mouse; settings: for No. of writhes counted within a 10 min time interval, 25 min post drug administration, beginning 5 min after acetic acid injection: 75 mg/Kg body weight p.o., single animals, n = 7 (raw data for FIG. 1A); for number of writhes induced by injection of acetic acid: mean, vehicle only 42.3+/−7.2
Experimental: Two different assays were utilized to quantify the analgesic effects of the compounds. All tests were performed on CD1 male mice. […] In some embodiments, the vehicle can comprise Agent K, 0.2%, Bio-serve, or Labrafil 1944 (Gottefosee, France). Compound or vehicle was administered orally by lavage under brief halothane anesthesia to animals fasted overnight.
Acetic acid-induced abdominal writhing assay. Contraction of the abdominal muscle and stretching of the hind limbs is induced as a response to intraperitoneal (ip) injection of an acetic acid solution, as described Hendershot and Forsaith, 1959. In this model of visceral pain, abdominal contractions (writhing) is induced in mice by an ip injection of 0.4% acetic acid at a dose of 10 mL/Kg, 25 min after drug administration. The number of writhes is counted for 10 min beginning 5 min after acetic acid injection. […] Data is expressed as mean±SEM, n=7.

CD1 male mice [3] = experiment: Blood creatinine functional assay; assay type: in vivo, mouse; settings: 600 mg/Kg PO, serum
CD1 male mice [4] = experiment: Tail-flick assay; assay type: in vivo, mouse; settings: 600 mg/Kg per os, 30 minutes post injection; versus ApAP
Experimental: Two different assays were utilized to quantify the analgesic effects of the compounds. All tests were performed on CD1 male mice. […] In some embodiments, the vehicle can comprise Agent K, 0.2%, Bio-serve, or Labrafil 1944 (Gottefosee, France). Compound or vehicle was administered orally by lavage under brief halothane anesthesia to animals fasted overnight. Tail-flick assay. Analgesic effect of drugs was determined by using the reaction time (latency) of mice to thermal stimulation of the tail tip. All animals (CD1 male mice) were fasted overnight (15 hours) and, their baseline tail flick latency (seconds) was recorded using an IITC Tail Flick Analgesia Meter. The tail of each mouse was exposed to a focused beam of light and the latency to remove the tail from the path of the stimulus were recorded electronically using a photoelectric cell of the IITC Tail Flick Analgesia Meter. The stimulus intensity was adjusted to produce baseline latencies of 3-6 seconds. […] At 30 minutes post injection, tail flick latency was recorded again to determine total change in latency. […] Data expressed as mean±SEM, n=10.

CYP3A4 = molecular target: T1, CYP3A4 (Homo sapiens, UniProt P08684); experiment: VIVID CYP450 screening assay, CYP3A4; assay type: in vitro ADME; settings: probe CYP enzyme specific fluorogenic substrate (not named)
T1 construct: purchased Life Technologies, Invitrogen/Thermo Fisher Scientific; host or cells: insect cells (microsomes)
Experimental: (§1) The […]450 screening assay kit (Life Technologies, Invitrogen/Thermo Fisher Scientific) was used as an in vitro high throughput screening. Here, each compound was mixed with a master pre-mix comprising of CYP450 BACULOSOMES (which are microsomes prepared from insect cells expressing a specific human P450 isoenzyme), reagent and regeneration system, which contained glucose-6-phosphate and glucose-6-phosphate dehydrogenase. The mixture was pre-incubated at room temperature for 20 minutes. Following this, each CYP enzyme specific substrate and NADP^+ were added and the mixture incubated at room temperature for 30 minutes. The reaction was stopped by addition of 0.5 M Tris base. CYP activity was evaluated by measuring the fluorescence of the fluorescent metabolite generated from each CYP enzyme specific substrate.

CYP2E1 = molecular target: T2, CYP2E1 (Homo sapiens, UniProt P05181); experiment: VIVID CYP450 screening assay, CYP2E1; assay type: in vitro ADME; settings: probe CYP enzyme specific fluorogenic substrate (not named)
T2 construct: purchased Life Technologies, Invitrogen/Thermo Fisher Scientific; host or cells: insect cells (microsomes)
Experimental: as §1

HepaRG and hHEPs [5] = experiment: GSH assay (ThiolTracker Violet) in hepatocytes; assay type: cell-based, human; settings: 500 μM and 1000 μM; time and dose-dependent
Experimental: (§2) HepaRG cells procured from Thermo Fisher Scientific (Invitrogen) are terminally differentiated hepatic cells, which are derived from a hepatic progenitor cell line that retains many characteristics of primary human hepatocytes. […] LDH assay. Using the Pierce LDH Cytotoxicity assay kit from Thermo Scientific, cells were incubated in presence of various drug compounds, followed by collection of the medium supernatant. Release of LDH was measured in 96 well plate formats. The absorbance was measured at 490 nm and 680 nm and the final result was absorbance observed at 680 nm subtracted from absorbance observed at 490 nm (A490 nm-[…] nm). GSH assay. Using the ThiolTracker Violet Glutathione Detection reagent from Molecular Probes (Invitrogen), after hepatocytes were incubated in the presence of various compounds, incubation medium was removed, cells rinsed with D-PBS conditioned medium followed by incubation with pre-warmed ThiolTracker Violet dye (working solution prepared as per manufacturer's instructions) for 30 minutes. Fluorescence was measured at the following wavelengths: excitation (404 nm) and emission (526 nm). The finalized result was expressed as relative fluorescence units (RFU), which indicates the cellular level of reduced glutathione (GSH) in intact cells.

HepaRG and hHEPs [6] = experiment: LDH cytotoxicity assay in hepatocytes; assay type: cell-based, human; settings: 500 μM and 1000 μM; time and dose-dependent
Experimental: as §2

CYP2D6 = molecular target: T3, CYP2D6 (Homo sapiens, UniProt P10635); experiment: VIVID CYP450 screening assay, CYP2D6; assay type: in vitro ADME
T3 construct: purchased Life Technologies, Invitrogen/Thermo Fisher Scientific; host or cells: insect cells (microsomes)
Experimental: as §1

mouse = experiment: LPS-induced fever mouse model; assay type: in vivo; settings: versus ApAP, 2 h, 8 h and 10 h

T2 sequence (P05181 whole entry): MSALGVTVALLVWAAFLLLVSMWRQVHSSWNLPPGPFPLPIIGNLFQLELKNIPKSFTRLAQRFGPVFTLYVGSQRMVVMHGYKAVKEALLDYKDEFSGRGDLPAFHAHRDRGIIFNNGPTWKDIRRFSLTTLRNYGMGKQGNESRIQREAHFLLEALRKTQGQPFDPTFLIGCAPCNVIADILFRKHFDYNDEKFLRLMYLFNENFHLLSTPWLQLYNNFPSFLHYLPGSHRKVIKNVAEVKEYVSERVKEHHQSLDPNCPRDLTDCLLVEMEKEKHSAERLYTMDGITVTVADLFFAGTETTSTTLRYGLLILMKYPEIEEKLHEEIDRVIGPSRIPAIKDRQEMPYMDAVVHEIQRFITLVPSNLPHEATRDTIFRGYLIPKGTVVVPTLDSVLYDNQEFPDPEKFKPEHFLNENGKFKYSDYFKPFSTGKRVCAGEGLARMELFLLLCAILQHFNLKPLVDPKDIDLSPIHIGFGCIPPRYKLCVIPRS
T1 sequence (P08684 whole entry): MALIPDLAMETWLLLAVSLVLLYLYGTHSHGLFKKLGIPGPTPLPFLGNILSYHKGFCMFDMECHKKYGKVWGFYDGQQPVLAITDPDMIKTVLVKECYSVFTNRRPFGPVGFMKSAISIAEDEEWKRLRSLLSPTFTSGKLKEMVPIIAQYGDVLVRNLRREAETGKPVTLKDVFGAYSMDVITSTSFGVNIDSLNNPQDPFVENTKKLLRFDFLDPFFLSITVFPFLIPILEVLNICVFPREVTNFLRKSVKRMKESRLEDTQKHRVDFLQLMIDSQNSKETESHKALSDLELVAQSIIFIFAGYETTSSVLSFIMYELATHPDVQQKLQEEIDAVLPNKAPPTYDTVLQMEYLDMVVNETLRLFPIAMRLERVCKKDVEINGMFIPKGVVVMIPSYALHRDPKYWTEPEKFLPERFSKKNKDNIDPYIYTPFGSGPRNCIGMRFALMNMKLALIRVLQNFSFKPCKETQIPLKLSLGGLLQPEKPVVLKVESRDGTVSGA
T3 sequence (P10635 whole entry): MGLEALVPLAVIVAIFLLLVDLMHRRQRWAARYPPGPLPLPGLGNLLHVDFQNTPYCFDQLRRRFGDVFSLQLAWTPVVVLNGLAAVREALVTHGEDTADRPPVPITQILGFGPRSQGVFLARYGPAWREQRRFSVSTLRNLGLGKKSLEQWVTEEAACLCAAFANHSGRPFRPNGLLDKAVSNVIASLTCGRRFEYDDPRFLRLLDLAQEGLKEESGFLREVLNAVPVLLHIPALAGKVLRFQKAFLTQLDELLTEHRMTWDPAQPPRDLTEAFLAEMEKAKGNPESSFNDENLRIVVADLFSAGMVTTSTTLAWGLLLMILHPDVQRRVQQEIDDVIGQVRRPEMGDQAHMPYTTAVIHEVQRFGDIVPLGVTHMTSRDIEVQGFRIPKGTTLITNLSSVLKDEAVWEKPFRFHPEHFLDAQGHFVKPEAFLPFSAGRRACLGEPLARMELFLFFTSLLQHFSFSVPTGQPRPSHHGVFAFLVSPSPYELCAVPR

blood creatinine levels (CD1 male mice [3]): increased levels of creatinine
SMILES: CC(=O)Nc1ccc(O)cc1 [ApAP, N-acetyl-para-aminophenol, reference compound]
ALT, AST and AP enzyme activity (liver function tests) (CD1 male mice [1]): Increased levels | No. of writhes counted within a 10 min time interval, 25 min post drug administration, beginning 5 min after acetic acid injection (CD1 male mice [2]): 11 and 12 and 14 and 15 and 16 (3×)

SMILES: CCN(CC)C(=O)c1ccccc1S(=O)(=O)NCC(=O)Nc1ccc(O)cc1 [SRP6d, 2-<[(4-Hydroxy-phenylcarbamoyl)-methyl]-sulfamoyl>-N,N-diethyl-benzamide]
analgesia in tail flick test (latency) (CD1 male mice [4]): comparable significant analgesia | inhibition at 30 min (CYP3A4): ~25% | inhibition at 30 min (CYP2E1): ~25% | amount of reduced glutathione (GSH) (HepaRG and hHEPs [5]): increased | lactate dehydrogenase (LDH) release (HepaRG and hHEPs [6]): consistently decreased | inhibitory effect for CYP2D6 (CYP2D6): marginal inhibitory effect | No. of writhes counted within a 10 min time interval, 25 min post drug administration, beginning 5 min after acetic acid injection (CD1 male mice [2]): 15 (3×) and 11 and 14 and 20 and 18 | number of writhes induced by injection of acetic acid (CD1 male mice [2]): 15.7+/−1.2 | antipyresis (temperature curves) (mouse): comparable antipyresis to ApAP

SMILES: CCCCNC(=O)c1ccccc1S(=O)(=O)NCC(=O)Nc1ccc(O)cc1 [SRP6i]
No. of writhes counted within a 10 min time interval, 25 min post drug administration, beginning 5 min after acetic acid injection (CD1 male mice [2]): 7 and 12 and 16 and 17 and 22 and 27 and 33

SMILES: COc1ccc(CNC(=O)c2ccccc2S(=O)(=O)NCC(=O)Nc2ccc(O)cc2)cc1 [SRP6j]
No. of writhes counted within a 10 min time interval, 25 min post drug administration, beginning 5 min after acetic acid injection (CD1 male mice [2]): 10 and 14 and 16 and 17 and 18 (2×) and 19

SMILES: O=C(CNS(=O)(=O)c1ccccc1C(=O)NC1CCCC1)Nc1ccc(O)cc1 [SRP6o]
No. of writhes counted within a 10 min time interval, 25 min post drug administration, beginning 5 min after acetic acid injection (CD1 male mice [2]): 11 and 14 and 16 and 17 (2×) and 18 and 24

SMILES: CC(C)CNC(=O)c1ccccc1S(=O)(=O)NCC(=O)Nc1ccc(O)cc1 [SRP6p]
No. of writhes counted within a 10 min time interval, 25 min post drug administration, beginning 5 min after acetic acid injection (CD1 male mice [2]): 14 (2×) and 17 and 24 and 26 and 29 and 30

inhibition at 30 min (CYP3A4): ~25% | inhibition at 30 min (CYP2E1): ~25% | amount of reduced glutathione (GSH) (HepaRG and hHEPs [5]): increased | inhibitory effect for CYP2D6 (CYP2D6): marginal inhibitory effect | melting point: 87 to 89 °C
SMILES: O=C(CNS(=O)(=O)c1ccccc1C(=O)NCCc1cccc(O)c1O)Nc1ccc(O)cc1 [SRP6r]
analgesia in tail flick test (latency) (CD1 male mice [4]): comparable significant analgesia | lactate dehydrogenase (LDH) release (HepaRG and hHEPs [6]): consistently decreased | No. of writhes counted within a 10 min time interval, 25 min post drug administration, beginning 5 min after acetic acid injection (CD1 male mice [2]): 9 and 12 and 18 and 20 and 25 and 26 (2×) | number of writhes induced by injection of acetic acid (CD1 male mice [2]): 9.5+/−4 | antipyresis (temperature curves) (mouse): comparable antipyresis to ApAP
